From US20190211020A1 (Agency for Science, Technology and Research, priority 2012, published 2019)

test system: eIF4E Ser209 phosphorylation in Hela cells; test: MNK cell-based assay (AlphaScreen SureFire, eIF4E Ser209 phosphorylation); details: Homo sapiens; eIF4E Ser209 phosphorylation, Hela cells, 2 hours; read-out: IC50 Hela
Excerpt: It has been reported that Ser209 of eIF4E is solely phosphorylated by the MNK enzymes. The ability of compounds to inhibit this process in Hela cells was investigated using the AlphaScreen SureFire® assay platform from Perkin Elmer (Waltham, Mass.). eIF4E phosphorylated on Ser209 is recognized by two antibodies, the first which is fused to a streptavidin coated donor bead binds to an epitope away from Ser209, the second which is fused to a protein A conjugated acceptor bead binds to phosphorylated Ser209. The phosphorylation of eIF4E on Ser209 brings the two antibodies into close proximity and when excited by a laser a singlet oxygen is released by the donor bead which excites the acceptor bead resulting in the emission of light. This enables the monitoring of eIF4E Ser209 phosphorylation and its inhibition in a cellular context.
Hela cells were seeded into microtitre plates (30,000 cells per well) in 100 μl of culture medium and incubated at 37° C. for 24 hours. The media was then removed by aspiration and the cells resuspended in 50 μl of serum free medium containing the test compound and incubated at 37° C. for 2 hours. The culture medium was again removed by aspiration and the cells resuspended in lysis buffer (provided in Perkin Elmer SureFire® Assay Kit). After agitation at 350 rpm for 20 minutes at 22° C., 4 μl was transferred to a 384 well OptiPlate™ (Perkin Elmer, Waltham, Mass.). To each well was added 5 μl of acceptor mix; the plate was sealed and agitated gently at 22° C. for 2 hours. Then, in subdued light, 2 μl of donor mix was added to each well, the plate was sealed, wrapped in aluminum foil and agitated gently at 22° C. for 2 hours. Emission was measured using the EnVision® plate reader (Perkin Elmer, Waltham, Mass.).
Inhibition constants (IC50) were determined by plotting AlphaScreen signal versus log compound concentration and fitting with a non-linear regression algorithm using GraphPad Prism (GraphPad Software Inc.).

| SMILES | IC50 |
| --- | --- |
| CCC1(NC(C)=O)CCN(C(=O)c2ccc(-c3ccc4ncc(-c5ccc(C#N)cc5)n4n3)cc2)CC1 [Example 66, N-(1-(4-(3-(4-cyanophenyl)imidazo[1,2-b]pyridazin-6-yl)benzoyl)-4-ethylpiperidin-4-yl)acetamide] | < 1000 nM |
| CC(=O)Nc1cc(-c2ccc3ncc(-c4ccc(C#N)cc4)n3n2)ccc1C(=O)N1CCC(N(C)C)CC1 [Example 81, N-(5-(3-(4-cyanophenyl)imidazo[1,2-b]pyridazin-6-yl)-2-(4-(dimethylamino)piperidine-1-carbonyl)phenyl)acetamide] | < 1000 nM |
| CN1CCN(C(=O)c2ccc(-c3ccc4ncc(-c5ccc(C#N)cc5)n4c3)cc2)CC1 [Example 95, 4-(6-(4-(4-Methylpiperazine-1-carbonyl)phenyl)imidazo[1,2-a]pyridin-3-yl)benzonitrile] | < 1000 nM |
| N#Cc1ccc(-c2cnc3ccc(-c4ccc(C(=O)N5CCCOCC5)cc4)cn23)cc1 [Example 97, 4-(6-(4-(1,4-oxazepane-4-carbonyl)phenyl)imidazo [1,2-a]pyridin-3-yl)benzonitrile] | < 1000 nM |
| CCN1CCN(C(=O)c2ccc(-c3ccc4ncc(-c5ccc(C#N)cc5)n4c3)cc2)CC1 [Example 98, 4-(6-(4-(4-ethylpiperazine-1-carbonyl)phenyl)imidazo [1,2-a]pyridin-3-yl)benzonitrile] | < 1000 nM |
| CC(=O)NC1(C)CCN(C(=O)c2ccc(-c3ccc4ncc(-c5ccc(C#N)cc5)n4c3)cc2)CC1 [Example 99, N-(1-(4-(3-(4-cyanophenyl)imidazo[1,2-a]pyridin-6-yl)benzoyl)-4-methylpiperidin-4-yl)acetamide] | < 1000 nM |
| CCN(CC)C1(C)CCN(C(=O)c2ccc(-c3ccc4ncc(-c5ccc(C#N)cc5)n4c3)cc2)CC1 [Example 100, 4-(6-(4-(4-(diethylamino)-4-methylpiperidine-1-carbonyl)phenyl)imidazo[1,2-a]pyridin-3-yl)benzonitrile] | < 1000 nM |
| CN(CC(=O)N1CCOCC1)C(=O)c1ccc(-c2ccc3ncc(-c4ccc(C#N)cc4)n3c2)cc1 [Example 101, 4-(3-(4-cyanophenyl)imidazo[1,2-a]pyridin-6-yl)-N-methyl-N-(2-morpholino-2-oxoethyl)benzamide] | < 1000 nM |
| N#Cc1ccc(-c2cnc3ccc(-c4ccc(C(=O)N5CCNC(=O)C5)cc4)cn23)cc1 [Example 102, 4-(6-(4-(3-oxopiperazine-1-carbonyl)phenyl)imidazo[1,2-a]pyridin-3-yl)benzonitrile] | < 1000 nM |
| CN1CCCN(C(=O)c2ccc(-c3ccc4ncc(-c5ccc(C#N)cc5)n4c3)cc2)CC1 [Example 103, 4-(6-(4-(4-methyl-1,4-diazepane-1-carbonyl)phenyl)imidazo[1,2-a]pyridin-3-yl)benzonitrile] | < 1000 nM |
| CN1CCC(C2CCN(C(=O)c3ccc(-c4ccc5ncc(-c6ccc(C#N)cc6)n5c4)cc3)CC2)CC1 [Example 105, 4-(6-(4-(1′-methyl-4,4′-bipiperidine-1-carbonyl)phenyl)imidazo[1,2-a]pyridin-3-yl)benzonitrile] | < 1000 nM |
| CC1(O)CCN(C(=O)c2ccc(-c3ccc4ncc(-c5ccc(C#N)cc5)n4c3)cc2)CC1 [Example 106, 4-(6-(4-(4-hydroxy-4-methylpiperidine-1-carbonyl)phenyl)imidazo[1,2-a]pyridin-3-yl)benzonitrile] | < 1000 nM |
| N#Cc1ccc(-c2cnc3ccc(-c4ccc(C(=O)N5CCCNCC5)cc4)cn23)cc1 [Example 107, 4-(6-(4-(1,4-diazepane-1-carbonyl)phenyl)imidazo [1,2-a]pyridin-3-yl)benzonitrile] | < 1000 nM |
| N#Cc1ccc(-c2cnc3ccc(-c4ccc(C(=O)N5CCC(N)CC5)cc4)cn23)cc1 [Example 109, 4-(6-(4-(4-aminopiperidine-1-carbonyl)phenyl)imidazo[1,2-a]pyridin-3-yl)benzonitrile] | < 1000 nM |
| CS(=O)(=O)NC1CCN(C(=O)c2ccc(-c3ccc4ncc(-c5ccc(C#N)cc5)n4c3)cc2)CC1 [Example 111, N-(1-(4-(3-(4-cyanophenyl)imidazo[1,2-a]pyridin-6-yl)benzoyl)piperidin-4-yl)methanesulfonamide] | < 1000 nM |
| CN(C)C1CCN(C(=O)c2ccc(-c3ccc4ncc(-c5ccc(C#N)cc5)n4c3)cc2)CC1 [Example 112, 4-(6-(4-(4-(dimethylamino)piperidine-1-carbonyl)phenyl)imidazo[1,2-a]pyridin-3-yl)benzonitrile] | < 1000 nM |
| CCC1(N)CCN(C(=O)c2ccc(-c3ccc4ncc(-c5ccc(C#N)cc5)n4c3)cc2)CC1 [Example 113, 4-(6-(4-(4-amino-4-ethylpiperidine-1-carbonyl)phenyl)imidazo [1,2-a]pyridin-3-yl)benzonitrile] | < 1000 nM |

Now from value to compound:

| IC50 | SMILES |
| --- | --- |
| < 1000 nM | N#Cc1ccc(-c2cnc3ccc(-c4ccc(C(=O)N5CCNCC5)cc4)nn23)cc1 [Example 65, 4-(6-(4-(piperazine-1-carbonyl)phenyl)imidazo [1,2-b]pyridazin-3-yl)benzonitrile] |
| < 1000 nM | N#Cc1ccc(-c2cnc3ccc(-c4ccc(C(=O)N5CCNC(=O)C5)cc4)nn23)cc1 [Example 68, 4-(6-(4-(3-oxopiperazine-1-carbonyl)phenyl)imidazo [1,2-b]pyridazin-3-yl)benzonitrile] |
| < 1000 nM | CN1CCN(C(=O)c2ccc(-c3ccc4ncc(-c5ccc(C#N)cc5)n4n3)cc2)CC1=O [Example 69, 4-(6-(4-(4-methyl-3-oxopiperazine-1-carbonyl)phenyl)imidazo[1,2-b]pyridazin-3-yl)benzonitrile] |
| < 1000 nM | CN1CCN(C2CCN(C(=O)c3ccc(-c4ccc5ncc(-c6ccc(C#N)cc6)n5n4)cc3)CC2)CC1 [Example 70, 4-(6-(4-(4-(4-methylpiperazin-1-yl)piperidine-1-carbonyl)phenyl)imidazo [1,2-b]pyridazin-3-yl)benzonitrile] |
| < 1000 nM | N#Cc1ccc(-c2cnc3ccc(-c4ccc(C(=O)N5CCC6(CCCCN6)CC5)cc4)nn23)cc1 [Example 71, 4-(6-(4-(1,9-diazaspiro[5.5]undecane-9-carbonyl)phenyl)imidazo [1,2-b]pyridazin-3-yl)benzonitrile] |
| < 1000 nM | CN1CCN(C(=O)c2ccc(-c3ccc4ncc(-c5ccc(C#N)cc5)n4n3)cc2Cl)CC1 [Example 72, 4-(6-(3-chloro-4-(4-methylpiperazine-1-carbonyl)phenyl)imidazo[1,2-b]pyridazin-3-yl)benzonitrile] |
| < 1000 nM | CN1CCN(C(=O)c2ccc(-c3ccc4ncc(-c5ccc(C#N)cc5)n4n3)cc2F)CC1 [Example 73, 4-(6-(3-fluoro-4-(4-methylpiperazine-1-carbonyl)phenyl)imidazo[1,2-b]pyridazin-3-yl)benzonitrile] |
| < 1000 nM | Cc1cc(-c2ccc3ncc(-c4ccc(C#N)cc4)n3n2)ccc1C(=O)N1CCN(C)CC1 [Example 74, 4-(6-(3-methyl-4-(4-methylpiperazine-1-carbonyl)phenyl)imidazo[1,2-b]pyridazin-3-yl)benzonitrile] |
| < 1000 nM | COc1cc(C(=O)N2CCN(C)CC2)ccc1-c1ccc2ncc(-c3ccc(C#N)cc3)n2n1 [Example 78, 4-(6-(2-methoxy-4-(4-methylpiperazine-1-carbonyl)phenyl)imidazo[1,2-b]pyridazin-3-yl)benzonitrile] |
| < 1000 nM | CN1CCN(C(=O)c2ccc(-c3ccc4ncc(-c5ccc(C#N)cc5)n4n3)cc2[N+](=O)[O-])CC1 [Example 79, 4-(6-(4-(4-methylpiperazine-1-carbonyl)-3-nitrophenyl)imidazo[1,2-b]pyridazin-3-yl)benzonitrile] |
| < 1000 nM | CN1CCN(C(=O)c2ccc(-c3ccc4ncc(-c5ccc6c(c5)CC(=O)N6)n4n3)cc2)CC1 [Example 85, 5-(6-(4-(4-methylpiperazine-1-carbonyl)phenyl)imidazo [1,2-b]pyridazin-3-yl)indolin-2-one] |
| < 1000 nM | CN1CCN(C(=O)c2ccc(-c3ccc4ncc(-c5ccc6[nH]ncc6c5)n4n3)cc2)CC1 [Example 86, (4-(3-(1H-indazol-5-yl)imidazo[1,2-b]pyridazin-6-yl)phenyl)(4-methylpiperazin-1-yl)methanone] |
| < 1000 nM | CN1CCN(C(=O)c2ccc(-c3ccc4ncc(-c5ccc6[nH]cnc6c5)n4n3)cc2)CC1 [Example 87, (4-(3-(1H-benzo[d]imidazol-5-yl)imidazo[1,2-b]pyridazin-6-yl)phenyl)(4-methylpiperazin-1-yl)methanone] |
| < 1000 nM | CN1CCN(C2CCN(C(=O)c3ccc(-c4ccc5ncc(-c6ccc7c(c6)CC(=O)N7)n5n4)cc3)CC2)CC1 [Example 89, 5-(6-(4-(4-(4-methylpiperazin-1-yl)piperidine-1-carbonyl)phenyl)imidazo[1,2-b]pyridazin-3-yl)indolin-2-one] |
| < 1000 nM | O=C1Cc2cc(-c3cnc4ccc(-c5ccc(C(=O)N6CCC(N7CCOCC7)CC6)cc5)nn34)ccc2N1 [Example 94, 5-(6-(4-(4-morpholinopiperidine-1-carbonyl)phenyl)imidazo[1,2-b]pyridazin-3-yl)indolin-2-one] |
